Experimental data published in PubChem BioAssay (NCI).
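Protocol summary: plate cells (96-well), add compound at 5 concentrations, incubate 48 h, interpolate endpoints linearly. TGI is the concentration that stops growth completely.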

Tests used:
Assay in all cases: NCI tumour cell line growth inhibition, 48 h
EKVX NSCLC = system: EKVX NSCLC
HL-60(TB) leukemia = system: HL-60(TB) leukemia
ACHN renal = system: ACHN renal
NCI-H226 lung = system: NCI-H226 lung
IGROV1 ovarian = system: IGROV1 ovarian
OVCAR-3 ovarian = system: OVCAR-3 ovarian
M14 melanoma = system: M14 melanoma
HCC-2998 colon = system: HCC-2998 colon
SK-OV-3 ovarian = system: SK-OV-3 ovarian
SN12C renal = system: SN12C renal
CCRF-CEM leukemia = system: CCRF-CEM leukemia
LXFL 529 NSCLC = system: LXFL 529 NSCLC
OVCAR-4 ovarian = system: OVCAR-4 ovarian
RPMI-8226 leukemia = system: RPMI-8226 leukemia
DMS 273 small cell lung = system: DMS 273 small cell lung
TK-10 renal = system: TK-10 renal
HOP-62 NSCLC = system: HOP-62 NSCLC
SNB-75 CNS = system: SNB-75 CNS
786-0 renal = system: 786-0 renal
OVCAR-8 ovarian = system: OVCAR-8 ovarian
UACC-62 melanoma = system: UACC-62 melanoma
K-562 leukemia = system: K-562 leukemia
KM12 colon = system: KM12 colon
UO-31 renal = system: UO-31 renal
SNB-19 CNS = system: SNB-19 CNS
CAKI-1 renal = system: CAKI-1 renal
SF-268 CNS = system: SF-268 CNS
MOLT-4 leukemia = system: MOLT-4 leukemia
SNB-78 CNS = system: SNB-78 CNS
DLD-1 colon = system: DLD-1 colon
COLO 205 colon = system: COLO 205 colon
KM20L2 colon = system: KM20L2 colon
NCI-H522 lung = system: NCI-H522 lung
A498 renal = system: A498 renal
SK-MEL-5 melanoma = system: SK-MEL-5 melanoma
UACC-257 melanoma = system: UACC-257 melanoma
SR leukemia = system: SR leukemia
HOP-92 NSCLC = system: HOP-92 NSCLC
HOP-18 NSCLC = system: HOP-18 NSCLC
HT29 colon = system: HT29 colon
SK-MEL-28 melanoma = system: SK-MEL-28 melanoma
RXF 393 renal = system: RXF 393 renal
M19-MEL melanoma = system: M19-MEL melanoma
NCI-H460 lung = system: NCI-H460 lung
SF-295 CNS = system: SF-295 CNS
U251 CNS = system: U251 CNS
XF 498 CNS = system: XF 498 CNS
HCT-116 colon = system: HCT-116 colon
SW-620 colon = system: SW-620 colon
LOX IMVI melanoma = system: LOX IMVI melanoma
SF-539 CNS = system: SF-539 CNS
A549 NSCLC = system: A549 NSCLC
NCI-H23 lung = system: NCI-H23 lung
MALME-3M melanoma = system: MALME-3M melanoma
SK-MEL-2 melanoma = system: SK-MEL-2 melanoma
OVCAR-5 ovarian = system: OVCAR-5 ovarian
DMS 114 small cell lung = system: DMS 114 small cell lung
HCT-15 colon = system: HCT-15 colon
RXF-631 renal = system: RXF-631 renal

`O=c1c([Se]c2coc3ccccc3c2=O)coc2ccccc12` was tested, and the TGI (EKVX NSCLC) was 33.6 µM, the TGI (HL-60(TB) leukemia) was > 100 µM and the TGI (ACHN renal) was 32.1 µM. It also gave a TGI (NCI-H226 lung) of 28.2 µM, a TGI (IGROV1 ovarian) of 22.3 µM and a TGI (OVCAR-3 ovarian) of 32 µM. It also gave a TGI (M14 melanoma) of 28.2 µM, a TGI (HCC-2998 colon) of 33.2 µM and a TGI (SK-OV-3 ovarian) of 29.8 µM. The TGI (SN12C renal) was 28.2 µM, the TGI (CCRF-CEM leukemia) was > 100 µM and the TGI (LXFL 529 NSCLC) was 28.8 µM. The TGI (OVCAR-4 ovarian) was 32.6 µM, the TGI (RPMI-8226 leukemia) was 56.3 µM and the TGI (DMS 273 small cell lung) was 24 µM. For the same compound, the TGI (TK-10 renal) was 31.6 µM, the TGI (HOP-62 NSCLC) was 21.1 µM and the TGI (SNB-75 CNS) was 29.1 µM. The TGI (786-0 renal) was 32.9 µM, the TGI (OVCAR-8 ovarian) was 25.5 µM and the TGI (UACC-62 melanoma) was 30.9 µM. The TGI (K-562 leukemia) was > 100 µM, the TGI (KM12 colon) was 23.4 µM and the TGI (UO-31 renal) was 26.3 µM. For the same compound, the TGI (SNB-19 CNS) was 27.4 µM, the TGI (CAKI-1 renal) was 39.8 µM and the TGI (SF-268 CNS) was 33.8 µM. For the same compound, the TGI (MOLT-4 leukemia) was 48.2 µM, the TGI (SNB-78 CNS) was 34.7 µM and the TGI (DLD-1 colon) was 34 µM. The TGI (COLO 205 colon) was 29.7 µM, the TGI (KM20L2 colon) was 26.4 µM and the TGI (NCI-H522 lung) was 32.5 µM. The TGI (A498 renal) was 33.6 µM, the TGI (SK-MEL-5 melanoma) was 29.9 µM and the TGI (UACC-257 melanoma) was 31.3 µM. The TGI (SR leukemia) was 22.4 µM, the TGI (HOP-92 NSCLC) was 31.7 µM and the TGI (HOP-18 NSCLC) was 29.3 µM. For the same compound, the TGI (HT29 colon) was 32.4 µM, the TGI (SK-MEL-28 melanoma) was 30.8 µM and the TGI (RXF 393 renal) was 29.5 µM. It also gave a TGI (M19-MEL melanoma) of 28.6 µM, a TGI (NCI-H460 lung) of 14 µM and a TGI (SF-295 CNS) of 13.7 µM. It also gave a TGI (U251 CNS) of 19.8 µM, a TGI (XF 498 CNS) of 30.5 µM and a TGI (HCT-116 colon) of 12.3 µM. It also gave a TGI (SW-620 colon) of 34.3 µM, a TGI (LOX IMVI melanoma) of 29.5 µM and a TGI (SF-539 CNS) of 24.2 µM. For the same compound, the TGI (A549 NSCLC) was 20.9 µM, the TGI (NCI-H23 lung) was 29.6 µM and the TGI (MALME-3M melanoma) was 31.8 µM. The TGI (SK-MEL-2 melanoma) was 32.4 µM, the TGI (OVCAR-5 ovarian) was 30.3 µM and the TGI (DMS 114 small cell lung) was 31.5 µM. The TGI (HCT-15 colon) was 30.8 µM.
With `Cc1nc(C(N)=S)sc1C(=O)/C=C/c1cccc(O)c1` the TGI (EKVX NSCLC) was > 100 µM, the TGI (HL-60(TB) leukemia) was > 100 µM and the TGI (ACHN renal) was > 100 µM. The TGI (RXF-631 renal) was > 100 µM, the TGI (NCI-H226 lung) was > 100 µM and the TGI (IGROV1 ovarian) was > 100 µM. The TGI (OVCAR-3 ovarian) was > 100 µM, the TGI (HCC-2998 colon) was > 100 µM and the TGI (SK-OV-3 ovarian) was > 100 µM. The TGI (SN12C renal) was > 100 µM, the TGI (CCRF-CEM leukemia) was 89.2 µM and the TGI (RPMI-8226 leukemia) was > 100 µM. The TGI (DMS 273 small cell lung) was > 100 µM, the TGI (TK-10 renal) was > 100 µM and the TGI (HOP-62 NSCLC) was > 100 µM. For the same compound, the TGI (SNB-75 CNS) was > 100 µM, the TGI (786-0 renal) was > 100 µM and the TGI (OVCAR-8 ovarian) was > 100 µM. The TGI (UACC-62 melanoma) was > 100 µM, the TGI (K-562 leukemia) was 78.3 µM and the TGI (KM12 colon) was > 100 µM. The TGI (UO-31 renal) was > 100 µM, the TGI (CAKI-1 renal) was > 100 µM and the TGI (SF-268 CNS) was > 100 µM. For the same compound, the TGI (MOLT-4 leukemia) was > 100 µM, the TGI (SNB-78 CNS) was > 100 µM and the TGI (DLD-1 colon) was > 100 µM. For the same compound, the TGI (COLO 205 colon) was > 100 µM, the TGI (KM20L2 colon) was > 100 µM and the TGI (NCI-H522 lung) was > 100 µM. The TGI (A498 renal) was > 100 µM, the TGI (SK-MEL-5 melanoma) was > 100 µM and the TGI (UACC-257 melanoma) was > 100 µM. For the same compound, the TGI (HOP-92 NSCLC) was > 100 µM, the TGI (HOP-18 NSCLC) was > 100 µM and the TGI (HT29 colon) was > 100 µM. The TGI (SK-MEL-28 melanoma) was > 100 µM, the TGI (RXF 393 renal) was > 100 µM and the TGI (M19-MEL melanoma) was > 100 µM. For the same compound, the TGI (NCI-H460 lung) was > 100 µM, the TGI (SF-295 CNS) was > 100 µM and the TGI (U251 CNS) was > 100 µM. For the same compound, the TGI (SW-620 colon) was > 100 µM, the TGI (LOX IMVI melanoma) was > 100 µM and the TGI (SF-539 CNS) was > 100 µM. The TGI (A549 NSCLC) was > 100 µM, the TGI (NCI-H23 lung) was > 100 µM and the TGI (MALME-3M melanoma) was > 100 µM. The TGI (SK-MEL-2 melanoma) was > 100 µM, the TGI (OVCAR-5 ovarian) was > 100 µM and the TGI (DMS 114 small cell lung) was > 100 µM. For the same compound, the TGI (HCT-15 colon) was > 100 µM.
